From ChEMBL document CHEMBL5715943, “Design and synthesis of potent and selective azaindole-based Rho kinase (ROCK) inhibitors” (ChemMedChem, 2008)

Tests used:
[1] = buffer
[2] = system: Saphenous artery; experiment: Vasorelaxant activity in isolated Chinchilla rabbit saphenous artery vessels assessed as inhibition of phenylephrine-mediated contraction; type: functional, tissue-based; conditions: Oryctolagus cuniculus
[3] = biological target: Rho-associated protein kinase 2 (Homo sapiens, UniProt O75116); experiment: Inhibition of His-tagged human ROCK2 expressed in Sf9 cells pre-incubated for 10 mins before S6 peptide substrate addition in presence of [33P]ATP and measured after 20 mins by scintillation counting
Rho-associated protein kinase 2, sequence (O75116 whole entry): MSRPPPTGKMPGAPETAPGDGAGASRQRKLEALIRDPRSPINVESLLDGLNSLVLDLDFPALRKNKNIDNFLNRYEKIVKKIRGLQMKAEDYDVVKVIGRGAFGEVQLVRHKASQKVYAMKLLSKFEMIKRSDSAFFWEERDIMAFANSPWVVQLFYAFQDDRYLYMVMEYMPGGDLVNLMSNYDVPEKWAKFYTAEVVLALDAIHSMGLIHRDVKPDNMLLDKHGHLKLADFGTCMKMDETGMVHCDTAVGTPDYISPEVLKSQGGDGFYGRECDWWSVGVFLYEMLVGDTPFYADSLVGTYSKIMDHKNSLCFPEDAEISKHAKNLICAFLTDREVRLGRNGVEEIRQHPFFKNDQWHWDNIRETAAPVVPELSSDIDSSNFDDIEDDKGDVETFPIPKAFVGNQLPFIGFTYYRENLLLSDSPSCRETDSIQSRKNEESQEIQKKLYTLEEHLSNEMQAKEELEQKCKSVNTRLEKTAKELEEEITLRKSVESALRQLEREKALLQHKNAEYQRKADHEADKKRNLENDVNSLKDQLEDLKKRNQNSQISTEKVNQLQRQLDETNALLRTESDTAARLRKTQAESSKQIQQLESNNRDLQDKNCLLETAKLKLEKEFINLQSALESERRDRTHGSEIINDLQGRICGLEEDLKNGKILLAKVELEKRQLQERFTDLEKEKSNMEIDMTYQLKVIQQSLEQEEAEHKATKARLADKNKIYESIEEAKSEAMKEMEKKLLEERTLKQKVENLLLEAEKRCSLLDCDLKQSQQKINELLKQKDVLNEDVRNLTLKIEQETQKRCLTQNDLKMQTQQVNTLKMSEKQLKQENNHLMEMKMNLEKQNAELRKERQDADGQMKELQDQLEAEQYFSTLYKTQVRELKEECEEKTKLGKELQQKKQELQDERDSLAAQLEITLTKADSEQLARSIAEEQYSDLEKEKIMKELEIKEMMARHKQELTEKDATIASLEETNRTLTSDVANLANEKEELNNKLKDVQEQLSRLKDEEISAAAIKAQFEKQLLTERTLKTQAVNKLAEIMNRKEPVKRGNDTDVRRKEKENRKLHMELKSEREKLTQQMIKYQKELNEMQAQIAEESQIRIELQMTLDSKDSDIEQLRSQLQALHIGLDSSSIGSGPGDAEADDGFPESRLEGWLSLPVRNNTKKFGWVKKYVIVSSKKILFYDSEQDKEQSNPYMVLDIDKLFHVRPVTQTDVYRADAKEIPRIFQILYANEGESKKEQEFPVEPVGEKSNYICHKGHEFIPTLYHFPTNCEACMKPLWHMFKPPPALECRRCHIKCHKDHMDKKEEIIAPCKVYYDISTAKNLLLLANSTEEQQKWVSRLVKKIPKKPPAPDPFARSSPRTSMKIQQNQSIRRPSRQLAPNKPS

[4] = system: Rattus norvegicus; experiment: Anti-hypertensive effect in anaesthetized Wistar rat assessed as blood-pressure-lowering effect at 3 mg/kg, iv relative to control; type: functional
[5] = in vivo; conditions: Wistar, rat, iv, 0.5 mg/kg
[6] = in vivo; conditions: Wistar, rat, iv, 0.5 mg/kg; remark: listed apart in the source
[7] = in vivo; conditions: Wistar, rat, po, 1 mg/kg
[8] = biological target: T1, Tyrosine-protein kinase receptor UFO (Homo sapiens, UniProt P30530); experiment: Inhibition of human AXL
T1 sequence (P30530 whole entry): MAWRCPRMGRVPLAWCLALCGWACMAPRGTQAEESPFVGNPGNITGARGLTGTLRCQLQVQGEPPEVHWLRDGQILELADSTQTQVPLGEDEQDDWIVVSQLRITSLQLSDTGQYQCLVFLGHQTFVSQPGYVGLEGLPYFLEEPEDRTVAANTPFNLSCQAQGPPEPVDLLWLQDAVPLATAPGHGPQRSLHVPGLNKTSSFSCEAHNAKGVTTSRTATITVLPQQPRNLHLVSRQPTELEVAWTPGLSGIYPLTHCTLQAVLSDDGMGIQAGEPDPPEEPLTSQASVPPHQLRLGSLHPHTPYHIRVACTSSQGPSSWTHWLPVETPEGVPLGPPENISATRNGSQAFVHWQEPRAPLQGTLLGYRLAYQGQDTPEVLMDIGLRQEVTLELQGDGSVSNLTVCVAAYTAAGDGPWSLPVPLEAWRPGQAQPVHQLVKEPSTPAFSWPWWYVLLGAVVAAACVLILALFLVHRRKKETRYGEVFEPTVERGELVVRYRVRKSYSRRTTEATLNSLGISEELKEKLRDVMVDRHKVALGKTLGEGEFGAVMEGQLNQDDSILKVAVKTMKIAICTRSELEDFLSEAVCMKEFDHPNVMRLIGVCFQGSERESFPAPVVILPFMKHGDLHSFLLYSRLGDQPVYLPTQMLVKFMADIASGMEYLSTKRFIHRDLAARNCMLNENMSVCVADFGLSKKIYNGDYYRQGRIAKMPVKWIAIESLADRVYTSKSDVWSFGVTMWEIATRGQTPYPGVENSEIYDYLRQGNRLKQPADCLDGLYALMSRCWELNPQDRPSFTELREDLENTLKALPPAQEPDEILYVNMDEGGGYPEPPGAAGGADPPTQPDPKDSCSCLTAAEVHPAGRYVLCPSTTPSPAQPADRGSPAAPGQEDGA

[9] = biological target: RAF proto-oncogene serine/threonine-protein kinase (Homo sapiens, UniProt P04049); experiment: Inhibition of human c-RAF
RAF proto-oncogene serine/threonine-protein kinase, sequence (P04049 whole entry): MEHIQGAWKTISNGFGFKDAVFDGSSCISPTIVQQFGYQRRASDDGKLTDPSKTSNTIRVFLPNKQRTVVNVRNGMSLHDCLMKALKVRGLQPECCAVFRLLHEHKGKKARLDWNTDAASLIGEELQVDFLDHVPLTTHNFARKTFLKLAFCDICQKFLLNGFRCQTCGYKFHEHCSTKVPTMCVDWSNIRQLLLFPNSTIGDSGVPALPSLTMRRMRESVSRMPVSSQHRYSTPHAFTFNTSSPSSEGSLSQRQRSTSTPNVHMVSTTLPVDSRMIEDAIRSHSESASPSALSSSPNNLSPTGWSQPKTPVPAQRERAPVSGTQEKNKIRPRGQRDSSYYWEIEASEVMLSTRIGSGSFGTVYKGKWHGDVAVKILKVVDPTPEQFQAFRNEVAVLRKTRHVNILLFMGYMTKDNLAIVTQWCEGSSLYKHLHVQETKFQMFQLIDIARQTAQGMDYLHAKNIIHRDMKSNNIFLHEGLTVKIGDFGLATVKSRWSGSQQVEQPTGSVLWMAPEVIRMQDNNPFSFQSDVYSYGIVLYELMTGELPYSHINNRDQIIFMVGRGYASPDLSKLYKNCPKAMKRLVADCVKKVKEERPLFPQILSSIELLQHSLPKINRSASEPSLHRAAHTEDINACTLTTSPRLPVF

[10] = Inhibition of sodium channel (unknown origin); set-up: species or system Homo sapiens
[11] = system: Rattus norvegicus; experiment: Anti-hypertensive effect in anaesthetized Wistar rat assessed as blood-pressure-lowering effect at 0.3 mg/kg, iv relative to control; type: functional
[12] = biological target: Voltage-gated inwardly rectifying potassium channel KCNH2 (Homo sapiens, UniProt Q12809); experiment: Inhibition of human ERG channel assessed as reduction in K+ current by whole-cell voltage-clamp assay; type: toxicity
Voltage-gated inwardly rectifying potassium channel KCNH2, sequence (Q12809 whole entry): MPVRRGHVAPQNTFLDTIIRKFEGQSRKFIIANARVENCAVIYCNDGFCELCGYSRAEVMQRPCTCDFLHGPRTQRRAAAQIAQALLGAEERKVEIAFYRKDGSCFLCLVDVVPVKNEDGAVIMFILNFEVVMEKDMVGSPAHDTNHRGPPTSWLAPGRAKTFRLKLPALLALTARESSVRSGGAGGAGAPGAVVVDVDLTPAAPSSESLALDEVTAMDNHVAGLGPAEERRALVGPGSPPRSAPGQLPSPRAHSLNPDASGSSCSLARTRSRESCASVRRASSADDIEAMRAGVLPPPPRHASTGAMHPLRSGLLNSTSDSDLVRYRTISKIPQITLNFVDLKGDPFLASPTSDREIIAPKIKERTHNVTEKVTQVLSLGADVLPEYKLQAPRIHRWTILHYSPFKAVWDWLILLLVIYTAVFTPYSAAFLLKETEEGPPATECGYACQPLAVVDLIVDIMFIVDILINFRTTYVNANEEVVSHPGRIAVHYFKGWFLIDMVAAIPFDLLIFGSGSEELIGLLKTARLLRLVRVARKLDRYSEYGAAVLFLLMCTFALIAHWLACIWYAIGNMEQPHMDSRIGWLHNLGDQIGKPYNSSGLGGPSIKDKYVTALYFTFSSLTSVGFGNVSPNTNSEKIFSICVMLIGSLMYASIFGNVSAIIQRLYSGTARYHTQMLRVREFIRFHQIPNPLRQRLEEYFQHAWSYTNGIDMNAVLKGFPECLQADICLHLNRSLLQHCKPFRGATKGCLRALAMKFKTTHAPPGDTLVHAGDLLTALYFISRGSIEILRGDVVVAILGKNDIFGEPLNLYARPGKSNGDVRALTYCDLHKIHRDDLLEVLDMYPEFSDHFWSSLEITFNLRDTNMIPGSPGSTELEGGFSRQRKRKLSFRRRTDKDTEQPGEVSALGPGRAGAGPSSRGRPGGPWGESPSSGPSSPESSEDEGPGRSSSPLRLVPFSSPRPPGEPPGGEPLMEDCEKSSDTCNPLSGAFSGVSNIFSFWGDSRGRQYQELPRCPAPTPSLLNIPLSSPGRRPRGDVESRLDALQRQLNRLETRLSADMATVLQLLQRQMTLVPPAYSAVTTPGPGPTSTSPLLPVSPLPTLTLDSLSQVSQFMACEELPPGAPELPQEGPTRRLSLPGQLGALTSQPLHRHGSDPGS

[13] = biological target: Voltage-gated L-type calcium channel (Homo sapiens, UniProt Q13936+Q13698+Q01668+O60840); experiment: Inhibition of L-type calcium channel (unknown origin); type: protein assay
[14] = biological target: Myosin light chain kinase, smooth muscle (Homo sapiens, UniProt Q15746); experiment: Inhibition of MYLK (unknown origin)
Myosin light chain kinase, smooth muscle, sequence (Q15746 whole entry): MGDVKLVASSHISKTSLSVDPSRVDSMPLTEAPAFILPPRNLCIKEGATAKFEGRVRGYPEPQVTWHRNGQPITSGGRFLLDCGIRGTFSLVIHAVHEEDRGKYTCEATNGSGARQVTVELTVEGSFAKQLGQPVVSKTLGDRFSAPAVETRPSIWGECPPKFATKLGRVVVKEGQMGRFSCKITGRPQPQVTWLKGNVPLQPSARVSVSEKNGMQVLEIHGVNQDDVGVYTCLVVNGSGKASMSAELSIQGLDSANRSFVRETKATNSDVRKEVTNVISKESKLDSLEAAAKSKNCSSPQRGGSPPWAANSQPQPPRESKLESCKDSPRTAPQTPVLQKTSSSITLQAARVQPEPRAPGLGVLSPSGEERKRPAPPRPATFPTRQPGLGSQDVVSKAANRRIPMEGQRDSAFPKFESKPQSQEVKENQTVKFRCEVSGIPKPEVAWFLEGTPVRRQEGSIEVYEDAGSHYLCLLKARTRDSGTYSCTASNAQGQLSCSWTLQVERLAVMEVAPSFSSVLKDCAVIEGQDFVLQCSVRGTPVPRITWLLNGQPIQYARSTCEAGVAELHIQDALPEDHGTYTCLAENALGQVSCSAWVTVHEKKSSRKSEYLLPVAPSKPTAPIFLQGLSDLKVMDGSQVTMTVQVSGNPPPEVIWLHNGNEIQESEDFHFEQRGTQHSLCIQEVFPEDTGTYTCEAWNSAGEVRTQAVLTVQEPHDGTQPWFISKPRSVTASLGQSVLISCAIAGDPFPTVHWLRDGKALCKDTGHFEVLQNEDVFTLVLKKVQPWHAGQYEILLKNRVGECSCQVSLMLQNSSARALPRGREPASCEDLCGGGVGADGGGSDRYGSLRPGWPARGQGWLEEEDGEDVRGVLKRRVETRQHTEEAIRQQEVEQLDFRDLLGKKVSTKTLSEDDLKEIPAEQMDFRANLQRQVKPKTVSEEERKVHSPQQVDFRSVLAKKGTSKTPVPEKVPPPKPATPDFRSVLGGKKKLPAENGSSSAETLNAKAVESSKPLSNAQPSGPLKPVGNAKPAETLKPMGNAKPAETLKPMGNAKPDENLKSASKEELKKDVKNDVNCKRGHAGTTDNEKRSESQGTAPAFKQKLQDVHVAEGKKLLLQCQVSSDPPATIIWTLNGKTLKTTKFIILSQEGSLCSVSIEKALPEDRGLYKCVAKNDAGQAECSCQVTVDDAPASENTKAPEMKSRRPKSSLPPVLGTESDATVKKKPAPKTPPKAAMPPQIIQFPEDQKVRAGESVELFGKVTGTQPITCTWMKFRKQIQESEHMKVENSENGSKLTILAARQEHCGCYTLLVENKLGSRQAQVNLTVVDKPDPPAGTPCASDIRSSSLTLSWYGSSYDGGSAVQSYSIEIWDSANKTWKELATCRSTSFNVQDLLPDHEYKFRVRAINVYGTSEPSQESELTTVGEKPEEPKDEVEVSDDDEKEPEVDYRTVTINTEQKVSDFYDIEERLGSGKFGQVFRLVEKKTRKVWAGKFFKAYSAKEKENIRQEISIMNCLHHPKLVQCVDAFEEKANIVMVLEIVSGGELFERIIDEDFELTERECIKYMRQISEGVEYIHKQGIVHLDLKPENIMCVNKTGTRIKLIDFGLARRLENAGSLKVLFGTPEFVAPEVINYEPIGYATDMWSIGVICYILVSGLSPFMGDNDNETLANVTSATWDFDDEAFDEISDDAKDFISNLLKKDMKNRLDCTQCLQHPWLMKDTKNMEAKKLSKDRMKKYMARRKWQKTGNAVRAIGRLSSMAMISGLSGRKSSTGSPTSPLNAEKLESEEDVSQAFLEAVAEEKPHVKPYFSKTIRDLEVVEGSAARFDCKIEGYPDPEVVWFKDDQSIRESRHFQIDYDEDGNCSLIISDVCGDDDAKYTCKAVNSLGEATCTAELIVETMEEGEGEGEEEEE

SMILES	IC50 [2] [nM]	IC50 [3] [nM]	also measured
N#Cc1c[nH]c2nccc(Oc3c(F)cc(Nc4ccnc(N)n4)cc3F)c12	20	0.9	solubility [1]: Insoluble
Nc1nc(Nc2ccc(Oc3ccnc4[nH]ccc34)c(F)c2)cc(-c2ccncc2)n1	270		Activity [4]: 65 mmHg; half-life [5]: 18 min; clearance [6]: 88.3 mL/min/kg; bioavailability [7]: 18%
Cc1c[nH]c2nccc(Oc3ccc(Nc4cc(Cl)nc(N)n4)cc3F)c12	100		
Nc1nc(Nc2ccc(Oc3ccnc4[nH]ccc34)c(F)c2)cc(C2CCCNC2)n1 (centres undefined)	230		
Cc1cc(Nc2ccc(Sc3ccncc3)c(F)c2)nc(N)n1		90	
Nc1nc(Nc2ccc(Sc3ccncc3)c(F)c2)cc(-c2ccncc2)n1	500	11	
Nc1nc(Cl)cc(Nc2ccc(Oc3ccnc4[nH]ccc34)c(F)c2)n1	1100	9	
Nc1nccc(Nc2ccc(Oc3ccnc4[nH]ccc34)c(F)c2)n1	1500	17	
Cc1cc(Nc2ccc(Oc3ccnc4[nH]ccc34)c(F)c2)nc(N)n1	1700	11	
Nc1nc(Nc2ccc(Oc3ccnc4[nH]ccc34)c(F)c2)cc(-c2ccccn2)n1	460	7	
Nc1nc(Nc2ccc(Oc3ccnc4[nH]ccc34)c(F)c2)cc(-c2cccnc2)n1	370	10	
Nc1nc(Nc2ccc(Oc3cccc4[nH]ncc34)c(F)c2)cc(-c2ccncc2)n1		380	
Cc1c[nH]c2nccc(Oc3c(F)cc(Nc4ccnc(N)n4)cc3F)c12	56	2	half-life [5]: 54 min; clearance [6]: 26.7 mL/min/kg
CCc1c[nH]c2nccc(Oc3ccc(Nc4cc(-c5ccncc5)nc(N)n4)cc3F)c12	1200	8	
Nc1nc(Nc2ccc(Oc3ccnc4[nH]ccc34)c(F)c2)cc(N2CCNCC2)n1	410	6	
Nc1nc(Nc2cc(F)c(Oc3ccnc4[nH]cc(Cl)c34)c(F)c2)cc(C(F)(F)F)n1	82	2	solubility [1]: Insoluble
Nc1nc(Nc2ccc(Oc3cccc4[nH]ccc34)c(F)c2)cc(-c2ccncc2)n1		> 3000	
Nc1nc(Nc2ccc(Oc3ccnc4[nH]ncc34)c(F)c2)cc(-c2ccncc2)n1		> 3000	
Nc1nc(Nc2ccc(Oc3ccnc4[nH]ccc34)c(F)c2)cc(C(F)(F)F)n1	710	7	
Cc1c[nH]c2nccc(Oc3ccc(Nc4ccnc(N)n4)cc3F)c12	84	4	half-life [5]: 30 min; clearance [6]: 35 mL/min/kg
Nc1nc(Nc2ccc(Oc3cccc4cnccc34)c(F)c2)cc(-c2ccncc2)n1		200	
Nc1nc(Nc2ccc(Oc3ccnc4[nH]ccc34)c(F)c2)cc(C2CCNCC2)n1	570	2	
Cc1c[nH]c2nccc(Oc3ccc(Nc4cc(-c5ccncc5)nc(N)n4)cc3F)c12	89	3	Activity [4]: 70 mmHg
Nc1nc(Nc2ccc(Oc3ccnc4[nH]ccc34)c(F)c2)cc(N2CCCC2)n1	940	16	
Cc1cc(Nc2ccc(Sc3ccncc3)cc2)nc(N)n1		800	
Cc1n[nH]c2cccc(Oc3ccc(Nc4cc(-c5ccncc5)nc(N)n4)cc3F)c12	6800		
Cc1c[nH]c2nccc(Oc3c(F)cc(Nc4cc(Cl)nc(N)n4)cc3F)c12 [BAY-549]	65		IC50 [8]: 1000 nM; IC50 [9]: 1000 nM; IC50 [10]: 6800 nM; Activity [11]: 35 mmHg; inhibition (INH) [12]: Not Active; half-life [5]: 72 min; IC50 [13]: 6700 nM; clearance [6]: 28.3 mL/min/kg; bioavailability [7]: 48%; IC50 [14]: 7400 nM
